Reference: ChEMBL document CHEMBL5150071, “BAY-7081: A Potent, Selective, and Orally Bioavailable Cyanopyridone-Based PDE9A Inhibitor” (J Med Chem, 2022)
Each block holds one molecule with its values, some of them ahead of it. Activity calls are given as the source filed them. No cut-off for these calls is given here.

Tests used:
[1] = molecular target: High affinity cGMP-specific 3',5'-cyclic phosphodiesterase 9A (Homo sapiens, UniProt O76083); assay: Inhibition of full length human PDE9A expressed in Sf9 insect cells using [3H]-cGMP as substrate incubated for 60 mins by microbeta scintillation counter analysis
[2] = Selectivity index, ratio of IC50 for bovine brain PDE1 to IC50 for full length human PDE9A
[3] = Selectivity index, ratio of IC50 for bovine PDE6 to IC50 for full length human PDE11A
[4] = Drug metabolism in rat hepatocytes assessed as glucuronidation of cyclic lactam at 10 uM incubated for 4 hrs by LC-MS/MS analysis; assay type: ADME, cell-based, Hepatocyte
[5] = species: Homo sapiens; assay: Selectivity index, ratio of IC50 for full length human PDE3B to IC50 for full length human PDE9A
[6] = species: Homo sapiens; assay: Selectivity index, ratio of IC50 for full length human PDE4B to IC50 for full length human PDE9A
[7] = species: Homo sapiens; assay: Selectivity index, ratio of IC50 for full length human PDE7B to IC50 for full length human PDE9A
[8] = species: Homo sapiens; assay: Selectivity index, ratio of IC50 for full length human PDE10A to IC50 for full length human PDE9A
[9] = Blood clearance in po or iv dosed Wistar rat measured over 24 hrs by LC-MS/MS analysis; assay type: ADME, organism-based; conditions: in vivo
[10] = Drug metabolism in cryopreserved human hepatocytes assessed as glucuronidation of cyclic lactam at 10 uM incubated for 4 hrs by LC-MS/MS analysis; assay type: ADME, cell-based, Hepatocyte
[11] = species: Homo sapiens; assay: Selectivity index, ratio of IC50 for full length human PDE2A to IC50 for full length human PDE9A
[12] = species: Homo sapiens; assay: Selectivity index, ratio of IC50 for full length human PDE11A to IC50 for full length human PDE9A
[13] = species: Homo sapiens; assay: Selectivity index, ratio of IC50 for human platelet PDE5A to IC50 for full length human PDE9A
[14] = species: Homo sapiens; assay: Selectivity index, ratio of IC50 for full length human PDE8A to IC50 for full length human PDE9A
[15] = molecular target: T1, High affinity cGMP-specific 3',5'-cyclic phosphodiesterase 9A (Rattus norvegicus) (UniProt Q8QZV1); assay: Inhibition of rat PDE9A using [3H]-cGMP as substrate at 42 nM incubated for 60 mins by microbeta scintillation counter analysis relative to control
T1 sequence (whole entry): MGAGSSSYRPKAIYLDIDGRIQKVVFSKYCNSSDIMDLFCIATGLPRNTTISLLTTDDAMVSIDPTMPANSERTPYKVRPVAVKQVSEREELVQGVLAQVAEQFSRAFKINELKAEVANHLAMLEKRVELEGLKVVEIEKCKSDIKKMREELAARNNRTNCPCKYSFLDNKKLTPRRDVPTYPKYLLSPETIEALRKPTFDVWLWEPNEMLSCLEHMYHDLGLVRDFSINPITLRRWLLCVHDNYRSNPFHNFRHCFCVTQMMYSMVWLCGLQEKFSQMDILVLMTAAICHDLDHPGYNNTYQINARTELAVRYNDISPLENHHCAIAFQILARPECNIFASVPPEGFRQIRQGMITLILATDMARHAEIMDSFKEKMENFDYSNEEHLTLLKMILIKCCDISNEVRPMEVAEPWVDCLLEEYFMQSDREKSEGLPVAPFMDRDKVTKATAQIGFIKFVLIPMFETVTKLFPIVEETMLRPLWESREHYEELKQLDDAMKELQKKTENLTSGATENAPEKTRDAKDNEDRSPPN

[16] = test system: Rattus norvegicus; assay: In vivo inhibition of PDE9A in Sprague-Dawley rat assessed as increase in cGMP level in urine at 40 mg/kg, po measured after 85 mins by ELISA; assay type: functional, organism-based
[17] = molecular target: T2, High affinity cGMP-specific 3',5'-cyclic phosphodiesterase 9A (Mus musculus) (UniProt O70628); assay: Inhibition of mouse PDE9A using [3H]-cGMP as substrate at 34 nM incubated for 60 mins by microbeta scintillation counter analysis relative to control
T2 sequence (whole entry): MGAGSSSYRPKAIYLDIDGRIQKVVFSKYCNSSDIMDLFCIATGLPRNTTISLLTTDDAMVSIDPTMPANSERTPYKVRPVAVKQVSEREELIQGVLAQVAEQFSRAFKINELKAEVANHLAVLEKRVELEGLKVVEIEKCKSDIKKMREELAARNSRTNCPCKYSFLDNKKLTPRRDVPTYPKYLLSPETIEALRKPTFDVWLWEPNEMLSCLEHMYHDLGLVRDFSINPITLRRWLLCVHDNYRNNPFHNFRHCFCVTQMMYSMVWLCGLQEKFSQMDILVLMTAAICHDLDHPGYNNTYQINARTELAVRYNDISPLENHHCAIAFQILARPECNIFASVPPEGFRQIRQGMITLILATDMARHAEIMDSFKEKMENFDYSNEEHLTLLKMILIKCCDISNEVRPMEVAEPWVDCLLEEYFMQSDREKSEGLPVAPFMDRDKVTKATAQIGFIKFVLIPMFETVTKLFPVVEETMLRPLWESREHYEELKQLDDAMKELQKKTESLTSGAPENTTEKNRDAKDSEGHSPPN

[18] = Selectivity index, ratio of IC50 for bovine PDE6 to IC50 for full length human PDE9A

Sequence of High affinity cGMP-specific 3',5'-cyclic phosphodiesterase 9A (O76083 whole entry): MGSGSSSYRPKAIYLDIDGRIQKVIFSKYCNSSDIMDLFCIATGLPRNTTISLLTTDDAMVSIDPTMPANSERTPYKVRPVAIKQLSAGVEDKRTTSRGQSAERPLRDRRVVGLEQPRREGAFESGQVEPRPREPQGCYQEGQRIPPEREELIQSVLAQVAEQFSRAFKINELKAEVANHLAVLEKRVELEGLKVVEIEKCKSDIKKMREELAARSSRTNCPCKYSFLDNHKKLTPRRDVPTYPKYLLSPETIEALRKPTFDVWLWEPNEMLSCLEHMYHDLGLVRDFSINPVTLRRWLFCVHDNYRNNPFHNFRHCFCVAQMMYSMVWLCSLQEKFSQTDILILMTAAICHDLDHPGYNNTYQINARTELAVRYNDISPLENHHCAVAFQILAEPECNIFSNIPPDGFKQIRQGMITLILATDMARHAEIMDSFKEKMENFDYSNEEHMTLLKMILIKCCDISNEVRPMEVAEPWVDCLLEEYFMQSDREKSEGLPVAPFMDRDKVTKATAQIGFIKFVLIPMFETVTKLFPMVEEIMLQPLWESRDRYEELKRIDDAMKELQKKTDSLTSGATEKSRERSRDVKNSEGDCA

SMILES: CCCC1CNCc2c1[nH]c(=O)c(C#N)c2N1CCC2(CCOC2)CC1 (racemic)
- IC50 [1]: 0.013 µM
- Ratio IC50 [2]: 12

SMILES: CC1(C)CCN(c2c(C#N)c(=O)[nH]c3cccnc23)CC1
- IC50 [1]: 0.33 µM

SMILES: CCCCC1CCCc2c1[nH]c(=O)c(C#N)c2-c1ccc(C)cc1 (racemic)
- IC50 [1]: 0.035 µM

SMILES: CCCC1CNCc2c1[nH]c(=O)c(C#N)c2N1CCC2(CC1)CC2(F)F (racemic)
- Ratio IC50 [2]: 30

- Ratio IC50 [3]: 17
SMILES: Cc1ccc(-c2c3c([nH]c(=O)c2C#N)CCCC3)cc1

SMILES: CCc1ccnc2c(N3CCC(C)(C)CC3)c(C#N)c(=O)[nH]c12
- IC50 [1]: 0.61 µM

SMILES: CCCC1CNCc2c1[nH]c(=O)c(C#N)c2N1CCC2(CC1)CC2 (stereo in doubt; form 1)
- IC50 [1]: > 10 µM

- Drug metabolism [4]: Metabolite_Detected
- Ratio IC50 [5]: > 100
- Ratio IC50 [6]: > 100
- Ratio IC50 [7]: > 100
- Ratio IC50 [8]: > 100
- CL [9]: 60 mL/min/kg
- Drug metabolism [10]: Metabolite_Detected
- Ratio IC50 [11]: > 100
- Ratio IC50 [12]: > 100
- Ratio IC50 [13]: > 100
- Ratio IC50 [14]: > 100
SMILES: CCCC1CNCc2c1[nH]c(=O)c(C#N)c2-c1ccc(C)cc1.Cl (stereo not drawn)

SMILES: CCCC1CNCc2c1[nH]c(=O)c(C#N)c2N1CCC2(CC1)CC2 (stereo in doubt; form 2)
- inhibition [15]: 50%
- Ratio IC50 [5]: > 650
- inhibition [16]: Active
- inhibition [17]: 50%
- Ratio IC50 [6]: 238
- Ratio IC50 [7]: > 650
- Ratio IC50 [18]: 101
- Ratio IC50 [8]: > 650
- Ratio IC50 [11]: > 650
- Ratio IC50 [12]: 430
- Ratio IC50 [13]: 143
- Ratio IC50 [2]: 49
- Ratio IC50 [14]: 97

SMILES: CCCC1CNCc2c1[nH]c(=O)c(C#N)c2N1CCC(C)CC1 (racemic)
- IC50 [1]: 0.2 µM
